Source: US20230078820A1, “FE[…] TREATMENT OF DEMYELINATING DISEASES AND CONDITIONS” (ZOGENIX INTERNATIONAL LIMITED, priority 2021, published 2023)

Legend:
SCN1a+/− (Dravet) mice [1] = assay: DMBP (degraded myelin basic protein) immunostaining score of myelin debris in brain sections, murine model of Dravet syndrome; format: in vivo, mouse; conditions: for DMBP Avg Score, Ctx / DMBP Avg Score, Hipp / DMBP Avg Score, Hipp + Ctx: Het mice, s.c. once daily P7 to P35-P37, FFA 15 mg/kg, diazepam 10 mg/kg; for DMBP Avg Score, Ctx: cortex; for DMBP Avg Score, Ctx / DMBP Avg Score, Hipp: scale 0-5; for DMBP Avg Score, Hipp: hippocampus, p = 0.00015 Het FFA vs Het vehicle; for DMBP Avg Score, Hipp + Ctx: sum of hippocampus and cortex, maximum 10, p = 0.01 Het FFA vs Het vehicle; for effect on myelin debris (D-MBP) score vs vehicle (saline): hippocampus and cortex of P35-P37 SCN1a+/− mice, 2-tail unequal variance t-test, FIG. 2
Source text: (§1) Epilepsy is increasingly recognized as a disease of white matter pathology and damage, see Hatton, S. N. et al [Epilepsy Currents 2021 21:27-29]. To test whether fenfluramine reduced pathology and damage to myelin, a mouse model of Dravet syndrome was used. […] Heterozygous Dravet animals used in the studies reported in Examples 2 and 3 are Scn1atm1Kea 50% C57BL/6J, 50% 129S6/SvEvTac background strain mice generated as described in Miller, A. R. et al. [Genes Brain Behav. 2014 February; 13(2): 163-172]. Briefly, a heterozygous Scn1a+/− null allele was generated by targeted deletion of the first coding exon in TL1 ES cells (12956/SvEvTac). These mice were established and maintained as a co-isogenic strain on the 12956/SvEvTac (129) background. […] P ranges, stated as, e.g. P35-P37, indicate the days postnatal of the study animals Normal axonodendritic, axonosomatic and axonoaxonic synaptic pruning occurs in all mice and peaks at postnatal P21. Postnatal ages for the study animals were chosen to avoid periods of high natural demyelination and microglial activity.
(§2) In Heterozygous Animals, drug or saline sham treatment began at age P7 (i.e., 7 days after birth) with subcutaneous administration of drug or saline injected via insulin syringes.
(§3) At day 7 all pups in each litter were administered an injection volume of 10 μl/g body weight once per day containing: 1) fenfluramine at 15 mg/kg; 2) diazepam at 10 mg/kg; or 3) vehicle (0.9% saline solution), each injection volume based on body weight.
(§4) The administration of each intervention continued every day until age P35-P37, at which time animals were sacrificed to obtain blood and brain tissues which amounted to an aggregate of 28 to 30 days of once daily dosing.
Mice at the end of the dosing period were isoflurane anaesthetized and blood was drawn through cardiac ventricular puncture without perforating the heart or vessels for subsequent perfusion fixation. Blood was processed for plasma and stored at −80C. After creating an incision in the hepatic circulation to allow perfusates an exit point, mice were flushed of remaining blood with 6 mL ice cold phosphate buffered saline through the left ventricle of the heart. Mice were then perfusion fixed with an additional 6 mL of ice cold 4% paraformaldehyde before carefully harvesting right brains into 10% neutral buffered formalin for 24 hours before transferring into phosphate buffered saline with 0.02% sodium azide as an antimicrobial preservative. Right brains were then embedded to paraffin blocks and processed as formalin fixed, paraffin embedded (FFPE) 5 μm thick sagittal sections on glass slides. These FFPE tissues were immunostained, processed, and imaged for degraded myelin and inflammatory microglia.
DMBP antibody (“degraded” Myelin Basic Protein, Anti-Myelin Basic Protein, Millipore Sigma antibody, formerly Sigma AB5864) was applied at 1:1000 dilution with no antigen retrieval. This antibody preferentially detects debris of myelin degradation in human samples without cross reacting to normal myelin. Vector ImPRESS-AP alkaline phosphatase conjugated anti-rabbit IgG (Vector Laboratories) was applied in the secondary detection step with Vector Blue AP substrate as the chromogen. Nuclear Fast Red was applied as a non-specific tissue counterstain before dehydration, clearing, and coverslip mounting steps. Vector Blue signals within finished slides were visualized with the DAPI (UV) excitation/emission channel on an Echo Revolve fluorescence microscope under the 20× objective. Non-specific Nuclear Fast Red staining was visualized under the Texas Red excitation/emission channel to provide anatomical contexts to the overlaid DMBP signals.

SCN1a+/− (Dravet) mice [2] = assay: CD11b+ activated microglia immunostaining score in brain sections, murine model of Dravet syndrome; format: in vivo, mouse; conditions: for CD11b Avg Score, Genu / CD11b Avg Score, PP / CD11b Avg Score, PP + Genu: Het mice, s.c. once daily P7 to P35-P37, FFA 15 mg/kg, diazepam 10 mg/kg; for CD11b Avg Score, Genu: genu of corpus callosum; for CD11b Avg Score, Genu / CD11b Avg Score, PP: scale 0-5; for CD11b Avg Score, PP: perforant pathway of hippocampus; for CD11b Avg Score, PP + Genu: sum of perforant pathway and genu, maximum 10, p = 0.05 Het FFA vs Het vehicle; for effect on CD11b+ activated microglia vs vehicle (saline): genu and perforant pathway of P35-P37 SCN1a+/− mice, 2-tail unequal variance t-test, FIG. 4
Source text: as §1, §2, §3, §4
Vector ImPRESS-AP alkaline phosphatase conjugated anti-rabbit IgG (Vector Laboratories) was applied in the secondary detection step with Vector Blue AP substrate as the chromogen. Nuclear Fast Red was applied as a non-specific tissue counterstain before dehydration, clearing, and coverslip mounting steps. Vector Blue signals within finished slides were visualized with the DAPI (UV) excitation/emission channel on an Echo Revolve fluorescence microscope under the 20× objective. Non-specific Nuclear Fast Red staining was visualized under the Texas Red excitation/emission channel to provide anatomical contexts to the overlaid CD11b signals. Perfusion fixed sagittal 5 um FFPE brain sections within approximately 300 um from the midline of the right brains of the P35-P37 wildtype and SCN1A heterozygous 50% B6/50% 129S6 mice from the Fintepla/Diazepam/Saline comparator study were examined for CD11b+ microglia.
A 0-5 ascending pathologist scale was applied in scoring CD11b+ microglia in the perforant pathway of the hippocampus following the hippocampal fissure and murine white matter in the front knob, “genu,” of the corpus callosum (CC). The CC is an elongated midline structure composed of 200-800 million horizontal interconnecting cortical areas. The mature CC contains both myelinated and unmyelinated fibers as well as glial cells (astrocytes and oligodendrocytes), and neurons. The human CC has been divided into five anatomical regions, which include from front to back, the rostrum, the genu, the body or trunk-often subdivided into anterior, middle and posterior body-the isthmus, and the splenium. Most neurons in the callosal fibers release excitatory amino acids (glutamate or aspartate), however a small proportion of GABAergic neurons have been identified in mammals
The scores of the genu and perforant pathway were summed for each animal for a maximum possible score of 10. This antibody preferentially detects activated microglia over surveilling, quiescent microglia across human, rat, and mouse species. Normal, healthy mice have more basal microglial activation in the CNS compared to the normal human CNS.

SCN1a+/− (het) mice = assay: Kaplan Meier estimation of survival in SCN1a+/− (het) mice; format: in vivo, mouse; conditions: P1-P40 SCN1a+/− (het) mice, compared to both placebo and diazepam treatment; FIG. 6
Source text: as §1

sigma-1 receptor = biological target: T1, sigma-1 receptor (Homo sapiens, UniProt Q99720); assay: 3H-fenfluramine binding to proteins expressed on reverse-transfected HEK293 cell arrays (phosphorimaging); conditions: tritium labeled fenfluramine, 1 or 5 micromolar in confirmation; HEK293 cells
T1 construct: arrays of expression vectors, encoding full-length human plasma membrane and tethered secreted proteins; expressed in transfected cells; host or cells: HEK293
Experimental: (§5) Briefly, arrays of expression vectors, encoding full-length human plasma membrane and tethered secreted proteins, were spotted onto coated slides, then HEK293 cells were grown over the top of the spots and became reverse-transfected resulting in cell surface expression of each respective protein at distinct slide locations. Tritium labeled fenfluramine was applied and specific binding analyzed and confirmed using a phosphorimaging technique. […] Confirmation was achieved by repeating the study with vectors encoding RNF43 and sigma-1 receptor proteins spotted onto slides, upon which HEK293 cells were reverse-transfected. Identical slides were treated before or after cell fixation with 1 micromolar or 5 micromolar 3H-fenfluramine, 20 nanomolar 3H-naloxone, or no compound (n=2 slides per treatment).

RNF43 = biological target: T2, RNF43 (Homo sapiens, UniProt Q68DV7); assay: as above; conditions: tritium labeled fenfluramine, 1 or 5 micromolar in confirmation; HEK293 cells; FIG. 1
T2 construct: arrays of expression vectors, encoding full-length human plasma membrane and tethered secreted proteins; expressed in transfected cells; host or cells: HEK293
T2 sequence (Q68DV7 24-783): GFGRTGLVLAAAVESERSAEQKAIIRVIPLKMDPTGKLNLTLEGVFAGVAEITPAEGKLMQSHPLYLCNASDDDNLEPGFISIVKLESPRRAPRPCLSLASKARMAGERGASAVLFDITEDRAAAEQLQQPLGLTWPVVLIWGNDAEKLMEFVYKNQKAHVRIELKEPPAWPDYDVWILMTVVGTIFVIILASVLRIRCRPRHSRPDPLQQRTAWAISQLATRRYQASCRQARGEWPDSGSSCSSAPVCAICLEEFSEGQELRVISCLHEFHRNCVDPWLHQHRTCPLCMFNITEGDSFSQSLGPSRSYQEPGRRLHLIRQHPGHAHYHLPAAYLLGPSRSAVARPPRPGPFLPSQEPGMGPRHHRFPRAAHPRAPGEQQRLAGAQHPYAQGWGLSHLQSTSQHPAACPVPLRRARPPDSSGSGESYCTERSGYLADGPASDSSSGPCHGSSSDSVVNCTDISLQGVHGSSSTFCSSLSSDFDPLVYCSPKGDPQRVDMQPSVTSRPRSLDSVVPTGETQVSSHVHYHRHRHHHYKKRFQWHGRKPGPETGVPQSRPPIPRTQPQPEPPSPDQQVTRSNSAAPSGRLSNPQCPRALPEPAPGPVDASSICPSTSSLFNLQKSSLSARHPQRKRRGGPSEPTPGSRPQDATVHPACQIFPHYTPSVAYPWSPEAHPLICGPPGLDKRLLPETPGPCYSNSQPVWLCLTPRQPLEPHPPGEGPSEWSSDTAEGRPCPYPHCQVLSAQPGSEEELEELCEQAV
Experimental: as §5

T1 sequence (Q99720 whole entry): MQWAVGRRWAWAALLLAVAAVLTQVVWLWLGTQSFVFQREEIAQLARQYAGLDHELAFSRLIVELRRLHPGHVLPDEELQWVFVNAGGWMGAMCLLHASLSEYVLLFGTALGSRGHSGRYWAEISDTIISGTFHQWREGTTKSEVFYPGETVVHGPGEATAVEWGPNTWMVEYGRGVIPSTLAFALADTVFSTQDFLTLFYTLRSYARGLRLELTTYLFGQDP

Structure (SMILES)	DMBP Avg Score, Ctx (SCN1a+/− (Dravet) mice [1])	DMBP Avg Score, Hipp (SCN1a+/− (Dravet) mice [1])	DMBP Avg Score, Hipp + Ctx (SCN1a+/− (Dravet) mice [1])	effect on myelin debris (D-MBP) score vs vehicle (saline) (SCN1a+/− (Dravet) mice [1])	CD11b Avg Score, Genu (SCN1a+/− (Dravet) mice [2])	CD11b Avg Score, PP (SCN1a+/− (Dravet) mice [2])	CD11b Avg Score, PP + Genu (SCN1a+/− (Dravet) mice [2])	effect on CD11b+ activated microglia vs vehicle (saline) (SCN1a+/− (Dravet) mice [2])	probability of survival over time (SCN1a+/− (het) mice)	binding interaction with sigma-1 (sigma-1 receptor)	binding interaction with RNF43 (RNF43)
CCNC(C)Cc1cccc(C(F)(F)F)c1 (racemic) [FFA, (RS)-N-ethyl-1-[3-(trifluoromethyl)phenyl]propan-2-amine]	2.54	2.62	5.15	significantly reduced the myelin debris (D-MBP) score	2.54	2.77	5.31	reduced activated microglia	increases the probability of survival	interactions were identified in the primary screen	interactions were identified in the primary screen
CN1C(=O)CN=C(c2ccccc2)c2cc(Cl)ccc21 [Diazepam, diazepam]	2.44	3.22	5.67	not significant	3.00	3.67	6.67	not significant			
